As a reminder, the pEC50 is the EC50 on a negative log10 scale, so that one unit is a factor of ten. Usually pKi stands for the negative decadic logarithm of the Ki, by convention in mol/L. A higher pKi goes with a low Ki.

pEC50, pKi: −log10 of the molar value.

These results are taken from ChEMBL document CHEMBL1129213, “Synthesis and structure-activity relationships of potent conformationally restricted retinoid X receptor ligands” (Bioorg Med Chem Lett, 1997).

In test [1] the target is T1, Retinoic acid receptor beta (Homo sapiens, UniProt P10826).
T1 sequence (P10826 whole entry): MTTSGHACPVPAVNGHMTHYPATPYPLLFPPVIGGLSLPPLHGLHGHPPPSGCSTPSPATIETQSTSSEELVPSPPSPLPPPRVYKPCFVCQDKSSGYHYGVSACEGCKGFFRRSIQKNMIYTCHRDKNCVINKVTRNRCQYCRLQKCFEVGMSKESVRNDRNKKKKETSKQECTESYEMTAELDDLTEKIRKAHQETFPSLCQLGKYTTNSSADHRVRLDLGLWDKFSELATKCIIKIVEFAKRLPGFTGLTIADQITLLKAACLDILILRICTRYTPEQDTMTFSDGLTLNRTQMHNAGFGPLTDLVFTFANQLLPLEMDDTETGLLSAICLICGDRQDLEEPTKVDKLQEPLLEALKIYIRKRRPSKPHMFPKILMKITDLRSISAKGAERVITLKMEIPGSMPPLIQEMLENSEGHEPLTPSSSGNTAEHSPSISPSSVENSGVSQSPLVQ
As to the kind of experiment: Transcriptional activation in CV-1 cells expressing retinoic acid receptor RAR beta. Type of test: functional, cell-based.

Test [2] has as its target T2, Retinoic acid receptor RXR-alpha (Homo sapiens, UniProt P19793).
T2 sequence (P19793 whole entry): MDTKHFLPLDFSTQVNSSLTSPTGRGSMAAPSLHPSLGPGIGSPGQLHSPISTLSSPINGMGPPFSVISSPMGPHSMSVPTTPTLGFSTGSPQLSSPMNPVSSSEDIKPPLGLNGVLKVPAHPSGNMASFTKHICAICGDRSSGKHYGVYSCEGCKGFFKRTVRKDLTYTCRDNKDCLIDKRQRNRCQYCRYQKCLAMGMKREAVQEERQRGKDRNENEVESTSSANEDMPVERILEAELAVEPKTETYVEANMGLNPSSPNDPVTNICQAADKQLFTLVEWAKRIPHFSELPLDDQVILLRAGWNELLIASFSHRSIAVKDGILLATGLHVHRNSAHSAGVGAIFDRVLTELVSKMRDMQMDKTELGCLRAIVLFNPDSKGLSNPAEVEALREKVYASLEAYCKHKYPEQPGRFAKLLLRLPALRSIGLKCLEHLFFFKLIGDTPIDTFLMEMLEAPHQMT
Description: Transcriptional activation in CV-1 cells expressing retinoid X receptor RXR alpha. Format: functional, cell-based.

In test [3] the target is T2, Retinoic acid receptor RXR-alpha. Description: Inhibition of [3H]9-cis-RA binding to RXR alpha receptor.
Test [4] has as its target T3, Retinoic acid receptor alpha (Homo sapiens, UniProt P10276).
T3 sequence (P10276 whole entry): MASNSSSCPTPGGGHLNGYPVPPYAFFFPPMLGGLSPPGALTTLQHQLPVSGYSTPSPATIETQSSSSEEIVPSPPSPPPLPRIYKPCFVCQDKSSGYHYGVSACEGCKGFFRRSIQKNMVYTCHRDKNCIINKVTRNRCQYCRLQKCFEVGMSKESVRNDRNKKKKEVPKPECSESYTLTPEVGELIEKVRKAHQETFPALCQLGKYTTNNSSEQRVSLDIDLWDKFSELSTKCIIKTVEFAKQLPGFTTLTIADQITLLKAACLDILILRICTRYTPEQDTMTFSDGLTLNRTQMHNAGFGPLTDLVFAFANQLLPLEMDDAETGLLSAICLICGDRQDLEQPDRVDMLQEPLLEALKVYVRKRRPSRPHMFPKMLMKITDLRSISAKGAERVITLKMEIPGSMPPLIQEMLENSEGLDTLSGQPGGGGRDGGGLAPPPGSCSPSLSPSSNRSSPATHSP
Description: Transcriptional activation in CV-1 cells expressing retinoic acid receptor RAR alpha; not active. Format: functional, cell-based.

Test [5] deals with T1, Retinoic acid receptor beta. Description: Inhibition of [3H]ATRA binding to RAR beta receptor.
Test [6] deals with T4, Retinoic acid receptor RXR-beta (Homo sapiens, UniProt P28702).
T4 sequence (P28702 whole entry): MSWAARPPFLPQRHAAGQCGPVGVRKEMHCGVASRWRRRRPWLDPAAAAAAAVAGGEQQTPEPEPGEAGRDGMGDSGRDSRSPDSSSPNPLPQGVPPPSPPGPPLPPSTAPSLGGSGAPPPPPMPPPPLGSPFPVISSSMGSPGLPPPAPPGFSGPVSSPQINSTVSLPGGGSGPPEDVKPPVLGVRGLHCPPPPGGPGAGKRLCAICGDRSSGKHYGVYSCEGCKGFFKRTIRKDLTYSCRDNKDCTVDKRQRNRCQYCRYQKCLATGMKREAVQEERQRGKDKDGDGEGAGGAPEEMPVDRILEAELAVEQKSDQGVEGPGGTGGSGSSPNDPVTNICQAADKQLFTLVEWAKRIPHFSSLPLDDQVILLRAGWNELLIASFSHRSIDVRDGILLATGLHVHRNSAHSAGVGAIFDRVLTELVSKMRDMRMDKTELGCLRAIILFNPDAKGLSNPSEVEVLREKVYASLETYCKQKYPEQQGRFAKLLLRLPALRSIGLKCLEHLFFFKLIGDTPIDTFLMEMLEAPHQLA
As to the kind of experiment: Inhibition of [3H]9-cis-RA binding to RXR beta receptor.

Test [7] concerns the target T5, Retinoic acid receptor RXR-gamma (Homo sapiens, UniProt P48443).
T5 sequence (P48443 whole entry): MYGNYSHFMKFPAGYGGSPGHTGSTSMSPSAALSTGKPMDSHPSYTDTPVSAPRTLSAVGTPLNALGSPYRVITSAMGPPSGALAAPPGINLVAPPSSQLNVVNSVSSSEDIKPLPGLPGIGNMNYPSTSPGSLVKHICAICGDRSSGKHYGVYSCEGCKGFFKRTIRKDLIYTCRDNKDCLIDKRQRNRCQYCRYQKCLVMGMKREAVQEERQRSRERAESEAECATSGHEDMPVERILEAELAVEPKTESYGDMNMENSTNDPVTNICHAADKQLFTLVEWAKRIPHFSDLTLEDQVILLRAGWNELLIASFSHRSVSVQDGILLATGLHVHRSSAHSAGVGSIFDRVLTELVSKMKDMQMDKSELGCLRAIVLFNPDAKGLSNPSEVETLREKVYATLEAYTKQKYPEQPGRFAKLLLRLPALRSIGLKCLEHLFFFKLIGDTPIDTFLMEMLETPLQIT
Description: Transcriptional activation in CV-1 cells expressing retinoid X receptor RXR gamma. Type of test: functional, cell-based.

Test [8] addresses T5, Retinoic acid receptor RXR-gamma. Description: Inhibition of [3H]9-cis-RA binding to RXR gamma receptor.
For test [9], the target named is T6, Retinoic acid receptor gamma (Homo sapiens, UniProt P13631).
T6 sequence (P13631 whole entry): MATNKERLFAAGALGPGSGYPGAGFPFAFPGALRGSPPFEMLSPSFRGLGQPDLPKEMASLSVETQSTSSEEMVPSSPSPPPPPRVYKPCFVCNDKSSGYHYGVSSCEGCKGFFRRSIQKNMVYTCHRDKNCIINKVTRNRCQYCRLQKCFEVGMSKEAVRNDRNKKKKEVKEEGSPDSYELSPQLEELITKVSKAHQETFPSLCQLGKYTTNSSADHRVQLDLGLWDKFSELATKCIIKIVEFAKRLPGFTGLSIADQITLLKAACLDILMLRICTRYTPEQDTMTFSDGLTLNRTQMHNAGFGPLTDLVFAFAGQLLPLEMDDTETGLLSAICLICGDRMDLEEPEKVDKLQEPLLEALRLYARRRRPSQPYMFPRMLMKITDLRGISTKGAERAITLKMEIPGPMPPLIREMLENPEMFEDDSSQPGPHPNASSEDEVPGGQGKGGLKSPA
As to the kind of experiment: Inhibition of [3H]ATRA binding to RAR gamma receptor.

Test [10] addresses T3, Retinoic acid receptor alpha. As to the kind of experiment: Inhibition of [3H]ATRA binding to RAR alpha receptor.
Test [11] addresses T6, Retinoic acid receptor gamma. As to the kind of experiment: Transcriptional activation in CV-1 cells expressing retinoic acid receptor RAR gamma. Format: functional, cell-based.
The target in test [12] is T4, Retinoic acid receptor RXR-beta. Description: Transcriptional activation in CV-1 cells expressing retinoid X receptor RXR beta. Type of test: functional, cell-based.
Test [13] concerns the target T3, Retinoic acid receptor alpha. Description: Transcriptional activation in CV-1 cells expressing retinoic acid receptor RAR alpha; inactive. Type of test: functional, cell-based.
Test [14] deals with T1, Retinoic acid receptor beta. Particulars: cv-1; call rule not given here.
The target of test [15] is T6, Retinoic acid receptor gamma. The following applies: cv-1.

Turning to `CC(/C=C/C1(c2ccc3c(c2)C(C)(C)CCC3(C)C)CC1)=C\C(=O)O`, the pEC50 in test [1] was 6.54; in [2], 7.64; in test [7] it was 7.62; in test [11], 6.40; in test [12], 7.72. Moreover, the negative logarithm of the Ki (pKi) in test [3] is 8.52; in test [5], less than 6.00; in [6], 8.15; in test [8], 8.22; in test [9], less than 6.00; in [10], less than 6.00. Also, in [4], the EC50 result is on record as “Not Active”.
In the case of `C=C(c1ccc(C(=O)O)cc1)c1ccc2c(c1)C(C)(C)CCC2(C)C`, the negative logarithm of the Ki (pKi) in test [3] is 6.82; in test [5], 6.04; in [6], 6.70; in test [8] it was 6.54; in test [9] it was 6.05; in test [10] it was 6.03. For the same compound, the EC50 entry in test [4] is reported as “Not Active”. Moreover, the negative-log EC50 (pEC50) is 6.39 in [7] and 6.31 in test [12].
In the case of `CC(/C=C/C1(c2cc3c(cc2C)C(C)(C)CCC3(C)C)CC1)=C\C(=O)O`, the negative-log Ki (pKi) in test [3] is 8.40; in test [5] it was less than 6.00; in test [6] it was 8.40; in test [8], 8.30; in test [9] it was less than 6.00; in test [10] it was less than 6.00. Besides, the EC50 entry in [13] and in [14] was “Not Active” throughout. In addition, the results for the negative logarithm of the EC50 (pEC50) in [7] and in test [12] were 8.15 and 7.89, respectively.
Consider `CC(/C=C/C1(c2cc3c(cc2C)C(C)(C)CCC3(C)C)CCCC1)=C\C(=O)O`, for which the pEC50 in [1] is 6.09; in test [2], 5.60; in [7], 5.57; in test [11] it was 5.75; in [12], 5.70. For the same compound, the pKi in test [3], in [5], in test [6], in [8], in test [9] and in [10] was less than 6.00 each time. In addition, in [4], the EC50 result is given as “Not Active”.
On to `CC(/C=C/C1(c2ccc3c(c2)C(C)(C)CCC3(C)C)CCCC1)=C\C(=O)O`, for which the figures for the pEC50 in [2], in [7] and in test [12] were 7.29, 6.72 and 6.90, respectively. For the same compound, the pKi in [3] is 7.04; in test [5], less than 6.00; in [6], 6.91; in test [8] it was 6.76; in test [9], less than 6.00; in test [10], less than 6.00. For the same compound, the EC50 entry in [4], in test [14] and in [15] was “Not Active” in each case.
